Tests used:
[1] = test system: oxaliplatin induced-neuropathic pain model mouse; assay: Analgesic action on oxaliplatin induced-neuropathic pain model mouse; type: in vivo; conditions: C57BL/6N mice, 1 week after oxaliplatin 0.3 mg/kg i.p., mean ± standard error
Protocol: Oxaliplatin was diluted with saline by the predetermined concentration, and administered intraperitoneally to mice (C57BL/6N, male, 8 weeks old) at 0.3 mg/kg. The test compound was dissolved in 10% captisol or 10% captisol containing 0.1% N-methyl-2-pyrrolidone. The compound was administered intravenously (0.1-10 mg/kg body weight) to the mice immediately before intraperitoneal administration of various anticancer drugs. The pain threshold was measured 1 week after oxaliplatin administration. The pain threshold was evaluated as a weighted value (gram) showing pseudo-escape reaction, when the footpad of the right hind limb was pressed using balance type pressurizing device (Ugo Basile). The values in the table show the mean±standard errors of the weighted values.

TLR4 = molecular target: T1, TLR4 (Mus musculus, UniProt Q9QUK6); assay: Inhibitory effect with respect to NO production (LPS/interferon γ-stimulated RAW264.7); type: cell-based, murine; conditions: RAW264.7 cells, LPS 1.25 ng/mL and mouse interferon γ 0.2 ng/mL, nitrite ion in culture supernatant
T1 construct: endogenous in cells; host or cells: RAW264.7 (murine macrophage cell line)
T1 sequence (Q9QUK6 26-835): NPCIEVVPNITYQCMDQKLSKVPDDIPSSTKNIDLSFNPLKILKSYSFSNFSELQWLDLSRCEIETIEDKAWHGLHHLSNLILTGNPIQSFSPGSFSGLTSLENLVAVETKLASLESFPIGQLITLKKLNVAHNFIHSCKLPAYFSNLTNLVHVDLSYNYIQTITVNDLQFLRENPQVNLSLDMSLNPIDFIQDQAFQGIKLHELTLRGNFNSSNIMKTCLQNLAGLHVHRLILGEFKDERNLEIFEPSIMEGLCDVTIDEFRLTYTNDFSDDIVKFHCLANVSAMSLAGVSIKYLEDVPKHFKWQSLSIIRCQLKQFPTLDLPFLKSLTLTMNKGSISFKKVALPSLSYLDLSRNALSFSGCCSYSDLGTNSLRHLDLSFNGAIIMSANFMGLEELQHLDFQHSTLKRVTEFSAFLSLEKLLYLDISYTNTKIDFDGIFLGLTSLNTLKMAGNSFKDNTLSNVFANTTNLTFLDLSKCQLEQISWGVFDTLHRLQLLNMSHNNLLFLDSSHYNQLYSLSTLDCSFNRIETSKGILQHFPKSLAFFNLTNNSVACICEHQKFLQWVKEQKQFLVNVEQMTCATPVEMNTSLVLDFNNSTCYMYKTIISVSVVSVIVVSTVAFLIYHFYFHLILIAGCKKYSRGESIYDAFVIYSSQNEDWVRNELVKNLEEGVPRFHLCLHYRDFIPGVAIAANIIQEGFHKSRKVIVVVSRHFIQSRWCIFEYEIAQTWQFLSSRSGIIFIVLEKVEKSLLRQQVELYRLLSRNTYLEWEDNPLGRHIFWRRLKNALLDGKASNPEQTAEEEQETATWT
T1 sequence (Q9JHF9 19-160 partner): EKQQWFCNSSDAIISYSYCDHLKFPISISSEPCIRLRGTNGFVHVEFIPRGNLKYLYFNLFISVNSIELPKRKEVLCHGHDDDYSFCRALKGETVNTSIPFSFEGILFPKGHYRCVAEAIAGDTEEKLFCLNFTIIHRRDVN
Protocol: The inhibitory effect on TLR4 was determined using the inhibition rate due to the test compound with respect to NO production as a result of addition of lipopolysaccharide (LPS) using murine macrophage cell line RAW264.7. The cells were adjusted to 2×10^6 cells/mL using RPM1-1640 culture medium (phenol red free) supplemented with 10% inactivated bovine fetal serum, and were plated on 384 well plate so as to contain 6×10^4 cells/30 μL per well. Thereafter the cells were cultured at 37° C. overnight under 5% CO2/95% air. The test compound dissolved in DMSO was diluted 200 times using RPM1-1640 culture medium and adjusted so as to form a compound concentration of 500 nM. The prepared test compound 10 μL (final concentration 100 nM) was added to the cells, and LPS (Sigma) and mouse interferon γ (Wako Pure Chemicals) were added in amounts of 10 μL so as to form final concentrations of 1.25 ng/mL and 0.2 ng/mL respectively. The cells were further cultured overnight, and then the nitrite ion (stable NO metabolite) concentration in the culture supernatant was measured as an index of NO production. The nitrite ion concentration was assayed by adding 10 μL of 20 μg/mL 2,3-diamino naphthalene (DAN) dissolved in 0.2N HCl to 20 μL culture supernatant, incubating at room temperature for ten minutes, and then adding 10 μL of 0.5N NaOH, and measuring the fluorescent value at 460 nm (excitation wavelength 355 nm) using an EnVision plate reader (Perkin Elmer). The NO production inhibition rate (%) was calculated using the value without the addition of stimulating agent as control of 100% inhibition, and the value without the addition of the compound as control of 0% inhibition.

## CCOC(=O)C1=CC2(CC[C@H]1S(=O)(=O)[C@H]1CCc3cccc(Cl)c31)O[C@H](CO)[C@@H](CO)O2 [Compound 6, Ethyl (2R,3R,8R)-8-(((1S)-7-chloro-2,3-dihydro-1H-inden-1-yl)sulfonyl)-2,3-bis(hydroxymethyl)-1,4-dioxaspiro[4.5]dec-6-ene-7-carboxylate]
[1]; 1 mg/kg i.v.
  Pain threshold (weighted value showing pseudo-escape reaction): 190.0 ± 46.1 gram
[1]; 3 mg/kg i.v.
  Pain threshold (weighted value showing pseudo-escape reaction): 153.3 ± 46.1 gram
[1]; 10 mg/kg i.v.
  Pain threshold (weighted value showing pseudo-escape reaction): 310.0 ± 45.6 gram
TLR4
  NO production inhibitory effect at 100 nM (% inhibition): 103 % inhibition

Reference: US9828357B2, “Cyclic compounds” (Takeda Pharmaceutical Company Limited, priority 2015, dated 2017)
